Values after ≈ are worked out from the molar mass of the structure shown. Where two headings read alike, the source gives them in different places.
Key:
HepG2 cells = test: NRU assay (lysosomal activity), 72 h exposure; format: cell-based, human; settings: for IC50: mean ± SD, n = 3
Description: (§1) The human hepatoma (HepG2) and colorectal adenocarcinoma (Caco-2) cells were purchased from the American Type Culture Collection: ATCC HB-8065 and ATCC HTB-37, respectively. These cells were cultured in Minimum Essential Medium Eagle (MEME) (ATCC). The murine fibroblasts cell line (Balb/c 3T3 clone A31) (gift from the Department of Swine Diseases of the National Veterinary Research Institute in Pulawy) was cultured in Dulbecco’s Modified Eagle Medium (DMEM) (ATCC). The media were supplemented with 10% BCS (Balb/c 3T3), 10% FBS (HepG2), 20% FBS (Caco-2), 1% L-glutamine, 1% antibiotic solution. The cells were maintained in 75 cm^2 cell culture flasks (NUNC) in a humidified incubator at 37 °C in an atmosphere of 5% CO2. The medium was refreshed every two or three days, and the cells were trypsinized by 0.25% trypsin–0.02% EDTA after reaching 70–80% confluence. Single cell suspensions were prepared and adjusted to a density of 2 × 10^5 cell/mL^−1 (HepG2), 1 × 10^5 cell/mL^−1 (Caco-2) and 5 × 10^4 cell/mL^−1 (Balb/c 3T3). The cell suspension was transferred to 96-well plates (100 µL/well) and incubated for 24 h before the exposure to the studied compounds. Stock solutions of ligands and metal complexes were prepared in sterile water and diluted with culture medium to obtain a concentration range from 0.1 to 10 µM. The final concentration of sterile water was 0.1% in the medium. […] As a negative control, cultured cells were grown in the absence of studied compounds. Each concentration was tested in six replicates in three independent experiments. Cytotoxicity was assessed after 72 h of exposure of the cells to compounds. The medium was not changed during the incubation time.
(§2) This method is based on staining living cells with neutral red, which readily diffuses through the plasma membrane and accumulates in lysosomes. […] After 10 min of shaking, the absorbance of the dissolved NR was measured using a Synergy HTX multi-mode reader (BioTek® Instruments Inc., Winooski, VT, USA) at 540 nm using a blank as a reference. Cytotoxicity was expressed as a percentage of the negative control. […]

B. subtilis ATCC 6633 = test: micro-dilution broth method (MIC, MBC); format: cell-based, Bacillus subtilis
E. faecalis ATCC 29212 = test: micro-dilution broth method (MIC, MBC); format: cell-based, Enterococcus faecalis
H. pylori ATCC 43504 = test: micro-dilution broth method (MIC, MBC); format: cell-based
[1] = test system: S. typhimurium ATCC 14028; test: micro-dilution broth method (MIC, MBC); format: cell-based, Salmonella Typhimurium
E. coli ATCC 25922 = test: micro-dilution broth method (MIC, MBC); format: cell-based, Escherichia coli
P. intermedia ATCC 25611 = test: micro-dilution broth method (MIC, MBC); format: cell-based
F. nucleatum ATCC 25586 = test: micro-dilution broth method (MIC, MBC); format: cell-based, Fusobacterium nucleatum
Caco-2 cells = test: LDH leakage assay (membrane integrity), 72 h exposure; format: cell-based, human; settings: Caco-2, LDH
Balb/c 3T3 cells [2] = test: MTT assay (mitochondrial activity), 72 h exposure; format: cell-based, murine
Description: as §1
The metabolic activity of living cells was assessed by the measurement of the activity of dehydrogenases. […] The plate was shaken for 15 min at room temperature and transferred to a microplate reader Synergy HTX multi-mode reader (BioTek® Instruments Inc., Winooski, VT, USA) to measure the absorbance at 570 nm, using a blank as a reference. Cytotoxicity was expressed as a percentage of the negative control. […]

Balb/c 3T3 cells [3] = test: NRU assay (lysosomal activity), 72 h exposure; format: cell-based, murine
Description: as §1, §2

Balb/c 3T3 cells [4] = test: LDH leakage assay (membrane integrity), 72 h exposure; format: cell-based, murine
Description: as §1
The integrity of the plasma membrane was assessed through the test of lactate dehydrogenase (LDH) release, which was monitored using the commercially available Cytotoxicity Detection Kit (LDH) (Roche Diagnostics, Warsaw, Poland). […] The absorbance was measured at 492 nm in a microplate reader Synergy HTX multi-mode reader (BioTek® Instruments Inc., Winooski, VT, USA) using a blank as a reference. […]

[5] = B. subtilis ATCC 6633, value in brackets
[6] = E. faecalis ATCC 29212, value in brackets
[7] = H. pylori ATCC 43504, value in brackets
[8] = S. typhimurium ATCC 14028, value in brackets
[9] = E. coli ATCC 25922, value in brackets
[10] = P. intermedia ATCC 25611, value in brackets
[11] = F. nucleatum ATCC 25586, value in brackets
[12] = Fusobacterium nucleatum, ATCC25586

Row | Compound | MBC (B. subtilis ATCC 6633; B. subtilis ATCC 6633) [mg/L] | MIC (B. subtilis ATCC 6633; B. subtilis ATCC 6633) [mg/L] | MBC (B. subtilis ATCC 6633; [5]) [µM/mL] | MIC (B. subtilis ATCC 6633; [5]) [µM/mL] | MBC (E. faecalis ATCC 29212; E. faecalis ATCC 29212) [mg/L] | MIC (E. faecalis ATCC 29212; E. faecalis ATCC 29212) [mg/L] | MBC (E. faecalis ATCC 29212; [6]) [µM/mL] | MIC (E. faecalis ATCC 29212; [6]) [µM/mL] | MBC (H. pylori ATCC 43504; H. pylori ATCC 43504) [mg/L] | MIC (H. pylori ATCC 43504; H. pylori ATCC 43504) [mg/L] | MBC (H. pylori ATCC 43504; [7]) [µM/mL] | MIC (H. pylori ATCC 43504; [7]) [µM/mL] | MBC [1, 8] [µM/mL] | MIC [1, 8] [µM/mL] | MBC (E. coli ATCC 25922; [9]) [µM/mL] | MIC (E. coli ATCC 25922; [9]) [µM/mL] | MBC (P. intermedia ATCC 25611; [10]) [µM/mL] | MIC (P. intermedia ATCC 25611; [10]) [µM/mL] | MBC (F. nucleatum ATCC 25586; [11]) [µM/mL] | MIC (F. nucleatum ATCC 25586; [11]) [µM/mL] | other results
1 | O=S(=O)([O-])[O-].[Ag+].[Ag+] [Ag2SO4, silver sulfate] | 31.3 | 31.3 | 0.1 | 0.1 | 125 | 31.3 | 0.4 | 0.1 | 15.6 | 15.6 | 0.05 | 0.05 | 0.8 | 0.1 | 0.2 | 0.2 | 0.025 | 0.025 | 0.1 | 0.1 | IC50 (HepG2 cells): > 10 µM; MBC ([1]; S. typhimurium ATCC 14028): 250 mg/L; MIC ([1]; S. typhimurium ATCC 14028): 31.3 mg/L; MBC (E. coli ATCC 25922; E. coli ATCC 25922): 62.5 mg/L; MIC (E. coli ATCC 25922; E. coli ATCC 25922): 62.5 mg/L; MBC (P. intermedia ATCC 25611; P. intermedia ATCC 25611): 7.8 mg/L; MIC (P. intermedia ATCC 25611; P. intermedia ATCC 25611): 7.8 mg/L; MBC (F. nucleatum ATCC 25586; F. nucleatum ATCC 25586): 31.3 mg/L; MIC (F. nucleatum ATCC 25586; F. nucleatum ATCC 25586): 31.3 mg/L
2 | O=[N+]([O-])[O-].[Ag+] [AgNO3, Silver nitrate] | 15.6 | 15.6 | 0.09 | 0.09 | 31.3 | 15.6 | 0.185 | 0.09 | 15.6 | 15.6 | 0.09 | 0.09 | 0.09 | 0.09 | 0.09 | 0.049 | 0.003 | 0.003 | 0.006 | 0.003 | MBC ([1]; S. typhimurium ATCC 14028): 15.6 mg/L; MIC ([1]; S. typhimurium ATCC 14028): 15.6 mg/L; MBC (E. coli ATCC 25922; E. coli ATCC 25922): 15.6 mg/L; MIC (E. coli ATCC 25922; E. coli ATCC 25922): 7.8 mg/L; MBC (P. intermedia ATCC 25611; P. intermedia ATCC 25611): 0.49 mg/L; MIC (P. intermedia ATCC 25611; P. intermedia ATCC 25611): 0.49 mg/L; MBC (F. nucleatum ATCC 25586; F. nucleatum ATCC 25586): 0.98 mg/L; MIC (F. nucleatum ATCC 25586; F. nucleatum ATCC 25586): 0.49 mg/L
3 | Cc1ncc([N+](=O)[O-])n1CCO [MTZ, 2-Methyl-5-nitroimidazole-1-ethanol] | – | – | 1.46 | 0.73 | – | – | > 5.85 | > 5.85 | – | – | 0.09 | 0.09 | > 5.85 | > 5.85 | > 5.85 | > 5.85 | > 5.85 | 5.85 | 0.01 | 0.01 | IC50 (HepG2 cells; Homo sapiens): > 10 µM; IC50 (Caco-2 cells; Homo sapiens, mean ± SD, n = 3): > 10 µM; IC50 (Balb/c 3T3 cells [2]; Mus musculus, BALB/c3T3, Balb/c 3T3, MTT, mean ± SD, n = 3): > 10 µM; IC50 (Balb/c 3T3 cells [3]; Mus musculus, BALB/c3T3, Balb/c 3T3, NRU, mean ± SD, n = 3): > 10 µM; IC50 (Balb/c 3T3 cells [4]; Mus musculus, BALB/c3T3, Balb/c 3T3, LDH, mean ± SD, n = 3): > 10 µM; MBC (B. subtilis ATCC 6633; Bacillus subtilis, ATCC6633, B. subtilis ATCC 6633, read-out: MBC): 250 mg/L (≈ 1460 µM); MBC (E. faecalis ATCC 29212; Enterococcus faecalis, ATCC29212, E. faecalis ATCC 29212, read-out: MBC): > 1000 mg/L; MIC (E. faecalis ATCC 29212; Enterococcus faecalis, ATCC29212, E. faecalis ATCC 29212, read-out: MIC): > 1000 mg/L; MBC (H. pylori ATCC 43504; Helicobacter pylori, ATCC43504, H. pylori ATCC 43504, read-out: MBC): 15.6 mg/L (≈ 91.1 µM); MIC (H. pylori ATCC 43504; Helicobacter pylori, ATCC43504, H. pylori ATCC 43504, read-out: MIC): 15.6 mg/L (≈ 91.1 µM); MBC ([1]; Salmonella enterica, S. typhimurium ATCC 14028, read-out: MBC): > 1000 mg/L; MIC ([1]; Salmonella enterica, S. typhimurium ATCC 14028, read-out: MIC): > 1000 mg/L; MBC (E. coli ATCC 25922; Escherichia coli, ATCC25922, E. coli ATCC 25922, read-out: MBC): > 1000 mg/L; MIC (E. coli ATCC 25922; Escherichia coli, ATCC25922, E. coli ATCC 25922, read-out: MIC): > 1000 mg/L; MBC (P. intermedia ATCC 25611; Prevotella intermedia, ATCC25611, P. intermedia ATCC 25611, read-out: MBC): > 1000 mg/L; MIC (P. intermedia ATCC 25611; Prevotella intermedia, ATCC25611, P. intermedia ATCC 25611, read-out: MIC): 1000 mg/L (≈ 5840 µM); MBC (F. nucleatum ATCC 25586; [12]): 1.95 mg/L (≈ 11.4 µM); MIC (F. nucleatum ATCC 25586; [12]): 1.95 mg/L (≈ 11.4 µM)
4 | Cc1ncc([N+](=O)[O-])n1CCO.Cc1ncc([N+](=O)[O-])n1CCO.Cc1ncc([N+](=O)[O-])n1CCO.Cc1ncc([N+](=O)[O-])n1CCO.O=S(=O)([O-])[O-].[Ag+].[Ag+] [[Ag(MTZ)2]2SO4] | 15.6 | 15.6 | 0.014 | 0.014 | 62.5 | 31.3 | 0.06 | 0.03 | 31.3 | 7.8 | 0.03 | 0.008 | 0.06 | 0.014 | 0.03 | 0.014 | 0.014 | 0.0009 | 0.0004 | 0.0004 | lowest concentration with significant (p ≤ 0.05) effect (HepG2 cells; Figure 6): 5.0 µM; lowest concentration with significant (p ≤ 0.05) disintegration of cellular membranes (Caco-2 cells; Figure 6): 0.5 µM; lowest concentration with significant (p ≤ 0.05) effect (Balb/c 3T3 cells [2]; Balb/c 3T3, MTT, Figure 6): 5.0 µM; lowest concentration with significant (p ≤ 0.05) effect (Balb/c 3T3 cells [3]; Balb/c 3T3, NRU, Figure 6): 5.0 µM; lowest concentration with significant (p ≤ 0.05) effect (Balb/c 3T3 cells [4]; Balb/c 3T3, LDH, Figure 6): 5.0 µM; MBC ([1]; S. typhimurium ATCC 14028): 62.5 mg/L; MIC ([1]; S. typhimurium ATCC 14028): 15.6 mg/L; MBC (E. coli ATCC 25922; E. coli ATCC 25922): 31.3 mg/L; MIC (E. coli ATCC 25922; E. coli ATCC 25922): 15.6 mg/L; MBC (P. intermedia ATCC 25611; P. intermedia ATCC 25611): 15.6 mg/L; MIC (P. intermedia ATCC 25611; P. intermedia ATCC 25611): 0.98 mg/L; MBC (F. nucleatum ATCC 25586; F. nucleatum ATCC 25586): 0.49 mg/L; MIC (F. nucleatum ATCC 25586; F. nucleatum ATCC 25586): 0.49 mg/L

From article PMC8869984, “Multifunctional Silver(I) Complexes with Metronidazole Drug Reveal Antimicrobial Properties and Antitumor Activity against Human Hepatoma and Colorectal Adenocarcinoma Cells” (Cancers, 2022)
